Values quoted from earlier work in US20230149377A1, “PHARMACEUTICAL METHODS” (ELEVAR THERAPEUTICS, INC., priority 2018, published 2023).
Counter-ions that a name gives are not always drawn.

Legend:
[1] = observed safety issues, approved drugs
[2] = Phase 1, 46 patients
[3] = single dose
VEGFR-2 = VEGFR-2 (Homo sapiens, UniProt P35968); conditions: nonclinical
[4] = tested on: tumor bearing animal models
[5] = 81 mg rivoceranib dose (100 mg mesylate), healthy volunteers
gastric cancer = conditions: Phase 3

VEGFR-2, sequence (P35968 20-1356, species assumed): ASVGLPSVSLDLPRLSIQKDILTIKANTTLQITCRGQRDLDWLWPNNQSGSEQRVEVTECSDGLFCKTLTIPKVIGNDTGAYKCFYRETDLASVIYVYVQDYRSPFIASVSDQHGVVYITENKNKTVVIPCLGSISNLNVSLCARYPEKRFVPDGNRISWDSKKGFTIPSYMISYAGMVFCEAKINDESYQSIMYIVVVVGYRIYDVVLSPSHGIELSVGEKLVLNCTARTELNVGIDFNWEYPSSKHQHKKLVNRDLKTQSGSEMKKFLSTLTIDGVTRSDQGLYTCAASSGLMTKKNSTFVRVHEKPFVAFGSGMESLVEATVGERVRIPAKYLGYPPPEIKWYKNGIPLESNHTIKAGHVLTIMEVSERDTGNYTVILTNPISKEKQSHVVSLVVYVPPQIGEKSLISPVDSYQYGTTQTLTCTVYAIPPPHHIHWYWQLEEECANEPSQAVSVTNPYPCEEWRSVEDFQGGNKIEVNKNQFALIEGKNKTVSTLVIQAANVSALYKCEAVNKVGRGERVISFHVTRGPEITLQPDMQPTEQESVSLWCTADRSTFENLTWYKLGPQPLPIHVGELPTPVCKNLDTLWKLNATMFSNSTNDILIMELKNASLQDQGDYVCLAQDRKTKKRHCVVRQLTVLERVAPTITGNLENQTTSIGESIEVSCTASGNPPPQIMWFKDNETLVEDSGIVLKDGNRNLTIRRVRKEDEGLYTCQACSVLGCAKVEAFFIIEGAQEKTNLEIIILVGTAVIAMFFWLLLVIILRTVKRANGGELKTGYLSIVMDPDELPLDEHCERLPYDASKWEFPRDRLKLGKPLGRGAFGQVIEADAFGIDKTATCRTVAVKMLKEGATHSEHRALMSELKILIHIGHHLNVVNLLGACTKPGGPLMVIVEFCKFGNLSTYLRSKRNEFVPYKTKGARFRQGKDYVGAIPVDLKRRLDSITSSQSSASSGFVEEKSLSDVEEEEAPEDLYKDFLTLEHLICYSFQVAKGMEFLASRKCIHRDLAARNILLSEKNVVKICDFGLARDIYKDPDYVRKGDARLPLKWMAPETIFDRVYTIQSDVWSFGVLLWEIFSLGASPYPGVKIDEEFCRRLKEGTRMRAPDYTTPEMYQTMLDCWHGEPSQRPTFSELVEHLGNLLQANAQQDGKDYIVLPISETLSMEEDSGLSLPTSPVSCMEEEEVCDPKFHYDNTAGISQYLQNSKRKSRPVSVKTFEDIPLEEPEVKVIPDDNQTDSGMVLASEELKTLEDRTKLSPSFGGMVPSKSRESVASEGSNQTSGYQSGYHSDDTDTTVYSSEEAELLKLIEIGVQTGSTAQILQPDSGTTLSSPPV

SMILES	Safety Profile: Central nervous system [1]	Safety Profile: Liver/Bile [1]	Safety Profile: Musculoskeletal/bone [1]	Safety Profile: Renal [1]	Safety Profile: Heart [1]	other results
Cc1nc(Nc2ncc(C(=O)Nc3c(C)cccc3Cl)s2)cc(N2CCN(CCO)CC2)n1 [Dasatinib]	R	R	R	R		
C#Cc1cccc(Nc2ncnc3cc(OCCOC)c(OCCOC)cc23)c1 [Erlotinib]	R	R				Safety Profile: Blood/lymph system [1]: R
CS(=O)(=O)CCNCc1ccc(-c2ccc3ncnc(Nc4ccc(OCc5cccc(F)c5)c(Cl)c4)c3c2)o1 [Lapatinib]	R				R	
Cc1cn(-c2cc(NC(=O)c3ccc(C)c(Nc4nccc(-c5cccnc5)n4)c3)cc(C(F)(F)F)c2)cn1 [Nilotinib]	R		R	R		Safety Profile: GI [1]: R; Safety Profile: Vascular [1]: R
Cc1ccc(Nc2nccc(N(C)c3ccc4c(C)n(C)nc4c3)n2)cc1S(N)(=O)=O [Pazopanib]					R	
CNC(=O)c1cc(Oc2ccc(NC(=O)Nc3ccc(Cl)c(C(F)(F)F)c3)cc2)ccn1 [Sorafenib]	R	R	R	R	R	Safety Profile: GI [1]: R; Safety Profile: Lung airways [1]: R
CCN(CC)CCNC(=O)c1c(C)[nH]c(/C=C2\C(=O)Nc3ccc(F)cc32)c1C [Sunitinib]	R	R			R	
N#CC1(c2ccc(NC(=O)c3cccnc3NCc3ccncc3)cc2)CCCC1 [rivoceranib mesylate]						maximum tolerated dose [2]: 850 mg; AUC0-∞ in Chinese and Japanese subjects compared to Caucasian subjects ([3]; healthy male): slightly higher; Cmax in Chinese and Japanese subjects compared to Caucasian subjects ([3]; healthy male): slightly higher; t1/2 ([3]; similar amongst Caucasian, Japanese and Chinese groups): 7.5 to 8 h
N#CC1(c2ccc(NC(=O)c3cccnc3NCc3ccncc3)cc2)CCCC1 [rivoceranib, N-[4-(1-cyanocyclopentyl)phenyl]-2-{[(pyridin-4-yl)methyl]amino} pyridine-3-carboxamide]						binding to VEGFR-2 (VEGFR-2): selectively binds; side effects in animals ([4]; at efficacious doses): minimal side effects; efficacy in various tumor bearing animal models ([4]; nonclinical): efficacious; Food effects on the bioavailability [5]: minimal; Grade 3/4 adverse reactions that occurred in more than 2% of patients (gastric cancer): hypertension, HFS, proteinuria, fatigue, anorexia, and elevated aminotransferase; median overall survival (OS) compared to placebo (gastric cancer): prolonged; median progression-free survival (PFS) compared to placebo (gastric cancer): prolonged
